Usually inhibition stands for the drop in the measured response relative to a control, in per cent.

The assay deals with Jak2 (human Jak2 kinase domain, amino acids 808-1132) (Homo sapiens (Human), UniProt O60674). The experiment in a line: Jak2 inhibition assay (Omnia kinase assay). The class given is biochemical. To be noted: read-out: Jak2 Enzyme (% inhibition at 1000 nM), Table 1; 1000 nM test compound.
Jak2 (human Jak2 kinase domain, amino acids 808-1132), sequence (O60674 808-1132): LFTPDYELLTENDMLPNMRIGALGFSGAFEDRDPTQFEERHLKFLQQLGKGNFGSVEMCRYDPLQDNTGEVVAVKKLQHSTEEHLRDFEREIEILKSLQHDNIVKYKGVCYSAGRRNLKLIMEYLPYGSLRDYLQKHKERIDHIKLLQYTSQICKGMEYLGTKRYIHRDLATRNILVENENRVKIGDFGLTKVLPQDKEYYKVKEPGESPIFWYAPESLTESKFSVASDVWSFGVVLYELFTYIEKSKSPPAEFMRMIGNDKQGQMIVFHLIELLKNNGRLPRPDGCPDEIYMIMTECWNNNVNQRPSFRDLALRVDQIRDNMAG
For the molecule `CONC(=O)c1cnn2ccc(N3CCC[C@@H]3c3cc(F)cnc3OC)nc12` [Example 83, (R)-5-(2-(5-fluoro-2-methoxypyridin-3-yl)pyrrolidin-1-yl)-N-methoxypyrazolo[1,5-a]pyrimidine-3-carboxamide], the inhibition at 1 µM was found to be 26.3%. Consider `Cn1cc(F)cc([C@H]2CCCN2c2ccn3ncc(C(=O)N[C@@H]4CCCC[C@H]4O)c3n2)c1=O` [Example 234, 5-((R)-2-(5-fluoro-1-methyl-2-oxo-1,2-dihydropyridin-3-yl)pyrrolidin-1-yl)-N-((1R,2R)-2-hydroxycyclohexyl)pyrazolo[1,5-a]pyrimidine-3-carboxamide], for which the inhibition at 1 µM turned out to be 5.3%. To `Cc1ncc(F)cc1[C@H]1CCCN1c1ccn2ncc(C(=O)NC[C@@H](C)O)c2n1` [Example 189, (R)-5-(2-(5-fluoro-2-methylpyridin-3-yl)pyrrolidin-1-yl)-N-((R)-2-hydroxypropyl)pyrazolo[1,5-a]pyrimidine-3-carboxamide] belongs 4.6%; to `C[C@@H](O)CNC(=O)c1cnn2ccc(N3CCC[C@@H]3c3cncc(F)c3)nc12` [Example 110, 5-((R)-2-(5-fluoropyridin-3-yl)pyrrolidin-1-yl)-N-((R)-2-hydroxypropyl)pyrazolo[1,5-a]pyrimidine-3-carboxamide], -0.5%; to `COc1ccc(F)cc1[C@H]1CCCN1c1ccn2ncc(C(=O)N[C@H]3CC[C@H](O)CC3)c2n1` [Example 34, 5-((R)-2-(5-fluoro-2-methoxyphenyl)pyrrolidin-1-yl)-N-((trans)-4-hydroxycyclohexyl)pyrazolo[1,5-a]pyrimidine-3-carboxamide], 96.9%.

Regarding `CC1(NC(=O)c2cnn3ccc(N4CCC[C@@H]4c4cncc(F)c4)nc23)CCC1` [Example 102, (R)-5-(2-(5-fluoropyridin-3-yl)pyrrolidin-1-yl)-N-(1-methylcyclobutyl)pyrazolo[1,5-a]pyrimidine-3-carboxamide], the inhibition at 1 µM was found to be 17.3%. Turning to `COc1ncc(F)cc1[C@H]1CCCN1c1ccn2ncc(C(=O)NC[C@@H](O)CO)c2n1` [Example 150, N-((R)-2,3-dihydroxypropyl)-5-((R)-2-(5-fluoro-2-methoxypyridin-3-yl)pyrrolidin-1-yl)pyrazolo[1,5-a]pyrimidine-3-carboxamide], the inhibition at 1 µM came to 8.9%. To `COc1ncc(F)cc1[C@H]1CCCN1c1ccn2ncc(C(=O)NC(CO)CO)c2n1` [Example 160, (R)-N-(1,3-dihydroxypropan-2-yl)-5-(2-(5-fluoro-2-methoxypyridin-3-yl)pyrrolidin-1-y1)pyrazolo[1,5-a]pyrimidine-3-carboxamide] belongs 8.5%; to `CC(C)(C)NC(=O)c1cnn2ccc(N3CCC[C@@H]3c3cccc(F)c3)nc12` [Example 36, (R)—N-tert-butyl-5-(2-(3-fluorophenyl)pyrrolidin-1-yl)pyrazolo[1,5-a]pyrimidine-3-carboxamide], 22.2%. To `CC(C)(C#N)NC(=O)c1cnn2ccc(N3CCC[C@@H]3c3cc(F)ccc3F)nc12` [Example 38, (R)—N-(2-cyanopropan-2-yl)-5-(2-(2,5-difluorophenyl)pyrrolidin-1-yl)pyrazolo[1,5-a]pyrimidine-3-carboxamide] belongs 18.2%; to `CS(=O)(=O)NCCNC(=O)c1cnn2ccc(N3CCC[C@@H]3c3cc(F)ccc3F)nc12` [Example 46, (R)-5-(2-(2,5-difluorophenyl)pyrrolidin-1-yl)-N-(2-(methylsulfonamido)ethyl)pyrazolo[1,5-a]pyrimidine-3-carboxamide], 13.8%; to `O=C(NCCO)c1cnn2ccc(N3CCC[C@@H]3c3cncc(F)c3)nc12` [Example 112, (R)-5-(2-(5-fluoropyridin-3-yl)pyrrolidin-1-yl)-N-(2-hydroxyethyl)pyrazolo[1,5-a]pyrimidine-3-carboxamide], 3.2%. To `CNC(=O)c1cnn2ccc(N3CCC[C@@H]3c3cc(F)cnc3OC)nc12` [Example 153, (R)-5-(2-(5-fluoro-2-methoxypyridin-3-yl)pyrrolidin-1-yl)-N-methylpyrazolo[1,5-a]pyrimidine-3-carboxamide] belongs 33.8%; to `O=C(NCC(F)(F)F)c1cnn2ccc(N3CCC[C@@H]3c3cncc(F)c3)nc12` [Example 131, (R)-5-(2-(5-fluoropyridin-3-yl)pyrrolidin-1-yl)-N-(2,2,2-trifluoroethyl)pyrazolo[1,5-a]pyrimidine-3-carboxamide], 14.6%. In the case of `Cc1ncc(F)cc1[C@H]1CCCN1c1ccn2ncc(C(=O)N[C@H]3CN4CCC3CC4)c2n1` [Example 198, 5-((R)-2-(5-fluoro-2-methylpyridin-3-yl)pyrrolidin-1-yl)-N-((R)-quinuclidin-3-yl)pyrazolo[1,5-a]pyrimidine-3-carboxamide], the inhibition at 1 µM turned out to be 1.6%. With `CC(C)(C)[C@@H](CO)NC(=O)c1cnn2ccc(N3CCC[C@@H]3c3cc(F)ccc3F)nc12` [Example 180, 5-((R)-2-(2,5-difluorophenyl)pyrrolidin-1-yl)-N-((S)-1-hydroxy-3,3-dimethylbutan-2-yl)pyrazolo[1,5-a]pyrimidine-3-carboxamide], the inhibition at 1 µM was -0.8%. To `CC(C)(N)CNC(=O)c1cnn2ccc(N3CCC[C@@H]3c3cc(F)ccc3F)nc12` [Example 58, (R)—N-(2-amino-2-methylpropyl)-5-(2-(2,5-difluorophenyl)pyrrolidin-1-yl)pyrazolo[1,5-a]pyrimidine-3-carboxamide] belongs 4.7%. Under `Cn1cc(F)cc([C@H]2CCCN2c2ccn3ncc(C(=O)N[C@H](CO)C(C)(C)C)c3n2)c1=O` [Example 233, 5-((R)-2-(5-fluoro-1-methyl-2-oxo-1,2-dihydropyridin-3-yl)pyrrolidin-1-yl)-N-((S)-1-hydroxy-3,3-dimethylbutan-2-yl)pyrazolo[1,5-a]pyrimidine-3-carboxamide] stands 6.7%; under `CC(C)(CO)NC(=O)c1cnn2ccc(N3CCC[C@@H]3c3cncc(F)c3)nc12` [Example 132], 3.7%. For `COc1ncc(F)cc1[C@H]1CCCN1c1ccn2ncc(C(=O)NOCCOC(C)(C)C)c2n1` [Example 152, (R)-N-(2-tert-butoxyethoxy)-5-(2-(5-fluoro-2-methoxypyridin-3-yl)pyrrolidin-1-yl)pyrazolo[1,5-a]pyrimidine-3-carboxamide], the inhibition at 1 µM stood at 7.6%.

As for `CN1CCN(CCNC(=O)c2cnn3ccc(N4CCC[C@@H]4c4cc(F)ccc4F)nc23)CC1` [Example 171, 5-((R)-2-(2,5-difluorophenyl)pyrrolidin-1-yl)-N-(2-(4-methylpiperazin-1-yl)ethyl)pyrazolo[1,5-a]pyrimidine-3-carboxamide], the inhibition at 1 µM turned out to be 7.8%. To `O=C(NC1CC1)c1cnn2ccc(N3CCC[C@@H]3c3cc(F)ccc3F)nc12` [Example 13, (R)—N-cyclopropyl-5-(2-(2,5-difluorophenyl)pyrrolidin-1-yl)pyrazolo[1,5-a]pyrimidine-3-carboxamide] belongs 41.4%; to `CC[C@@H](CO)NC(=O)c1cnn2ccc(N3CCC[C@@H]3c3cc(F)ccc3F)nc12` [Example 178, 5-((R)-2-(2,5-difluorophenyl)pyrrolidin-1-yl)-N-((S)-1-hydroxybutan-2-yl)pyrazolo[1,5-a]pyrimidine-3-carboxamide], 16.9%.

These data come from patent US10251889B2, “Substituted pyrazolo[1,5-a]pyrimidine compounds as Trk kinase inhibitors” (Array BioPharma, Inc., priority 2009, dated 2019).
